Reference: US20240384350A1, “METHODS OF TREATING CANCER WITH KINASE INHIBITORS” (BOARD OF REGENTS, THE UNIVERSITY OF TEXAS SYSTEM, priority 2021, published 2024)

Tests used:
Test in all cases: Ba/F3 drug screening, Cell Titer Glo, IC50 Mut/WT
Assay type in all cases: cell-based
EGFR G719A = molecular target: T1, EGFR G719A (Homo sapiens, UniProt P00533, G719A); conditions: PACC; G719A; Ba/F3; 72 hours
T1 construct: expressed in transfected cells; host or cells: Ba/F3
Protocol: (§1) Data represent the ratio of the IC50 value for a given TKI for cells with a PACC EGFR mutation to the IC50 value for cells with wildtype EGFR.
(§2) Ba/F3 cell generation, drug screening, and IC50 approximations. Ba/F3 cells were obtained as a gift from Dr. Gordon Mills (MD Anderson Cancer Center), and maintained in RPMI (Sigma) containing 10% FBS, 1% penicillin/streptomycin, and 10 ng/ml recombinant mIL-3 (R&D Biosystems). To establish stable Ba/F3 cell lines, Ba/F3 cells were transduced with retroviruses containing mutant EGFR plasmids for 12-24 hours.
(§3) After 48-72 hours of transduction, 2 μg/ml puromycin (Invitrogen) was added to Ba/F3 cell lines in complete RPMI. To select for EGFR positive cell lines, cells were stained with PE-EGFR (Biolegend) and sorted by FACS. After sorting, EGFR positive cells were maintained in RPMI containing 10% FBS, 1% penicillin/streptomycin, and 1 ng/ml EGF to support cell viability. Drug screening was performed as previously described^41,42. Shortly, cells were plated in 384-well plates (Greiner Bio-One) at 2000-3000 cells per well in technical triplicate. Seven different concentrations of TKIs or DMSO vehicle were added to reach a final volume of 40 μL per well. After 72 hours, 11 μL of Cell Titer Glo (Promega) was added to each well. Plates were incubated for a minimum of 10 minutes, and bioluminescence was determined using a FLUOstar OPTIMA plate reader (BMG LABTECH). Raw bioluminescence values were normalized to DMSO control treated cells, and values were plotted in GraphPad Prism. […] Drug screens were performed in technical triplicate on each plate and either duplicate or triplicate biological replicates.

EGFR E709K = molecular target: T2, EGFR E709K (Homo sapiens, UniProt P00533, E709K); conditions: PACC; E709K; Ba/F3; 72 hours
T2 construct: expressed in transfected cells; host or cells: Ba/F3

EGFR E709_T710del insD = molecular target: T3, EGFR E709_T710del insD (Homo sapiens, UniProt P00533, DEL709-709/T710D); conditions: PACC; E709_T710del insD; Ba/F3; 72 hours
T3 construct: expressed in transfected cells; host or cells: Ba/F3

EGFR L858R/V834L = molecular target: T4, EGFR L858R/V834L (Homo sapiens, UniProt P00533, L858R/V834L); conditions: Classical-Like, 72 hours
T4 construct: expressed in transfected cells; host or cells: Ba/F3 cells, retroviral pBabe-Puro vector

EGFR G719A L861Q = molecular target: T5, EGFR G719A L861Q (Homo sapiens, UniProt P00533, G719A/L861Q); conditions: PACC; G719A L861Q; Ba/F3; 72 hours
T5 construct: expressed in transfected cells; host or cells: Ba/F3
Protocol: as §1, §2, §3

EGFR K757R = molecular target: T6, EGFR K757R (Homo sapiens, UniProt P00533, K757R); conditions: PACC; K757R; Ba/F3; 72 hours
T6 construct: expressed in transfected cells; host or cells: Ba/F3
Protocol: as §1, §2
(§4) After 48-72 hours of transduction, 2 μg/ml puromycin (Invitrogen) was added to Ba/F3 cell lines in complete RPMI. To select for EGFR positive cell lines, cells were stained with PE-EGFR (Biolegend) and sorted by FACS. After sorting, EGFR positive cells were maintained in RPMI containing 10% FBS, 1% penicillin/streptomycin, and 1 ng/ml EGF to support cell viability. Drug screening was performed as previously described^41,42. Shortly, cells were plated in 384-well plates (Greiner Bio-One) at 2000-3000 cells per well in technical triplicate. Seven different concentrations of TKIs or DMSO vehicle were added to reach a final volume of 40 μL per well. After 72 hours, 11 μL of Cell Titer Glo (Promega) was added to each well. Plates were incubated for a minimum of 10 minutes, and bioluminescence was determined using a FLUOstar OPTIMA plate reader (BMG LABTECH). Raw bioluminescence values were normalized to DMSO control treated cells, and values were plotted in GraphPad Prism. […] Drug screens were performed in technical triplicate on each plate and either duplicate or triplicate biological replicates. […] Statistical differences between groups were determined by ANOVA as described in the figure legends.

EGFR S784F = molecular target: T7, EGFR S784F (Homo sapiens, UniProt P00533, S784F); conditions: Classical-Like, 72 hours
T7 construct: expressed in transfected cells; host or cells: Ba/F3 cells, retroviral pBabe-Puro vector (vector made by GeneScript from EGFR WT)
Protocol: (§5) Data represent the ratio of the IC50 value for a given TKI for cells with a classical-like EGFR mutation to the IC50 value for cells with wildtype EGFR.
as §2
(§6) After 48-72 hours of transduction, 2 μg/ml puromycin (Invitrogen) was added to Ba/F3 cell lines in complete RPMI. To select for EGFR positive cell lines, cells were stained with PE-EGFR (Biolegend) and sorted by FACS. After sorting, EGFR positive cells were maintained in RPMI containing 10% FBS, 1% penicillin/streptomycin, and 1 ng/ml EGF to support cell viability. […] Shortly, cells were plated in 384-well plates (Greiner Bio-One) at 2000-3000 cells per well in technical triplicate. Seven different concentrations of TKIs or DMSO vehicle were added to reach a final volume of 40 μL per well. After 72 hours, 11 μL of Cell Titer Glo (Promega) was added to each well. Plates were incubated for a minimum of 10 minutes, and bioluminescence was determined using a FLUOstar OPTIMA plate reader (BMG LABTECH). Raw bioluminescence values were normalized to DMSO control treated cells, and values were plotted in GraphPad Prism. […] Drug screens were performed in technical triplicate on each plate and either duplicate or triplicate biological replicates.

EGFR Ex19del T854I = molecular target: T8, EGFR Ex19del T854I (Homo sapiens, UniProt P00533, DEL746-750/T854I); conditions: PACC; Ex19del T854I; Ba/F3; 72 hours
T8 construct: expressed in transfected cells; host or cells: Ba/F3 (retroviral transduction, pBabe-Puro based vectors)
Protocol: as §1, §2, §3

EGFR T725M = molecular target: T9, EGFR T725M (Homo sapiens, UniProt P00533, T725M); conditions: Classical-Like, 72 hours
T9 construct: expressed in transfected cells; host or cells: Ba/F3 cells, retroviral pBabe-Puro vector (vector made by GeneScript from EGFR WT)

EGFR L747S = molecular target: T10, EGFR L747S (Homo sapiens, UniProt P00533, L747S); conditions: PACC; L747S; Ba/F3; 72 hours
T10 construct: expressed in transfected cells; host or cells: Ba/F3
Protocol: as §1, §2, §3

EGFR L858R/C797S = molecular target: T11, EGFR L858R/C797S (Homo sapiens, UniProt P00533, C797S/L858R); conditions: PACC; L858R/C797S; Ba/F3; 72 hours
T11 construct: expressed in transfected cells; host or cells: Ba/F3
Protocol: as §1, §2, §3

EGFR A763insLQEA = molecular target: T12, EGFR A763insLQEA (Homo sapiens, UniProt P00533, INS763LQEA); conditions: Classical-Like, 72 hours
T12 construct: expressed in transfected cells; host or cells: Ba/F3 cells, retroviral pBabe-Puro vector
Protocol: as §5, §2, §6

EGFR A767insASV = molecular target: T13, EGFR A767insASV (Homo sapiens, UniProt P00533, DUP767-769); conditions: Ex20, 72 hours
T13 construct: expressed in transfected cells; host or cells: Ba/F3 cells, retroviral pBabe-Puro vector
Protocol: (§7) Data represent the ratio of the IC50 value for a given TKI for cells with an ex20ins EGFR mutation to the IC50 value for cells with wildtype EGFR.
as §2, §4

EGFR S768I V774M = molecular target: T14, EGFR S768I V774M (Homo sapiens, UniProt P00533, S768I/V774M); conditions: PACC; S768I V774M; Ba/F3; 72 hours
T14 construct: host or cells: Ba/F3
Protocol: as §1, §2, §3

EGFR L858R/L792H = molecular target: T15, EGFR L858R/L792H (Homo sapiens, UniProt P00533, L792H/L858R); conditions: PACC; L858R/L792H; Ba/F3; 72 hours
T15 construct: expressed in transfected cells; host or cells: Ba/F3

EGFR G719S = molecular target: T16, EGFR G719S (Homo sapiens, UniProt P00533, G719S); conditions: PACC; G719S; Ba/F3; 72 hours
T16 construct: expressed in transfected cells; host or cells: Ba/F3

EGFR D770insNPG = molecular target: T17, EGFR D770insNPG (Homo sapiens, UniProt P00533, INS770NPG); conditions: Ex20, 72 hours
T17 construct: expressed in transfected cells; host or cells: Ba/F3 cells, retroviral pBabe-Puro vector
Protocol: as §7, §2, §4

EGFR L718V = molecular target: T18, EGFR L718V (Homo sapiens, UniProt P00533, L718V); conditions: PACC; L718V; Ba/F3; 72 hours
T18 construct: expressed in transfected cells; host or cells: Ba/F3
Protocol: as §1, §2, §3

EGFR Ex19del = molecular target: T19, EGFR Ex19del (Homo sapiens, UniProt P00533, DEL746-750); conditions: Classical-Like, 72 hours
T19 construct: expressed in transfected cells; host or cells: Ba/F3 cells, retroviral pBabe-Puro vector
Protocol: as §5, §2, §6

EGFR L858R = molecular target: T20, EGFR L858R (Homo sapiens, UniProt P00533, L858R); conditions: Classical-Like, 72 hours
T20 construct: expressed in transfected cells; host or cells: Ba/F3 cells, retroviral pBabe-Puro vector

EGFR L858R/L718V = molecular target: T21, EGFR L858R/L718V (Homo sapiens, UniProt P00533, L718V/L858R); conditions: PACC; L858R/L718V; Ba/F3; 72 hours
T21 construct: host or cells: Ba/F3

EGFR S811F = molecular target: T22, EGFR S811F (Homo sapiens, UniProt P00533, S811F); conditions: Classical-Like, 72 hours
T22 construct: expressed in transfected cells; host or cells: Ba/F3 cells, retroviral pBabe-Puro vector (vector made by GeneScript from EGFR WT)

EGFR Ex19del G724S = molecular target: T23, EGFR Ex19del G724S (Homo sapiens, UniProt P00533, DEL746-750/G724S); conditions: PACC; Ex19del G724S; Ba/F3; 72 hours
T23 construct: expressed in transfected cells; host or cells: Ba/F3

EGFR L858R/T790M = molecular target: T24, EGFR L858R/T790M (Homo sapiens, UniProt P00533, L858R/T790M); conditions: T790M-like-3S, 72 hours
T24 construct: expressed in transfected cells; host or cells: Ba/F3

SMILES: CNC(=O)CN1CCC(Oc2cc3c(Nc4cccc(Cl)c4F)ncnc3cc2OC)CC1 [Sapatinib]
- ratio of IC50 for cells with mutant EGFR to IC50 for cells with wildtype EGFR (Mut/WT) (EGFR G719A): 0.01264
- ratio of IC50 for cells with mutant EGFR to IC50 for cells with wildtype EGFR (Mut/WT) (EGFR E709K): 0.1216
- ratio of IC50 for cells with mutant EGFR to IC50 for cells with wildtype EGFR (Mut/WT) (EGFR E709_T710del insD): 1.754
- ratio of IC50 for cells with mutant EGFR to IC50 for cells with wildtype EGFR (Mut/WT) (EGFR L858R/V834L): 0.001889
- ratio of IC50 for cells with mutant EGFR to IC50 for cells with wildtype EGFR (Mut/WT) (EGFR G719A L861Q): 0.04615
- ratio of IC50 for cells with mutant EGFR to IC50 for cells with wildtype EGFR (Mut/WT) (EGFR K757R): 0.3144
- ratio of IC50 for cells with mutant EGFR to IC50 for cells with wildtype EGFR (Mut/WT) (EGFR S784F): 0.08508
- ratio of IC50 for cells with mutant EGFR to IC50 for cells with wildtype EGFR (Mut/WT) (EGFR Ex19del T854I): 0.2548
- ratio of IC50 for cells with mutant EGFR to IC50 for cells with wildtype EGFR (Mut/WT) (EGFR T725M): 0.00667
- ratio of IC50 for cells with mutant EGFR to IC50 for cells with wildtype EGFR (Mut/WT) (EGFR L747S): 0.005189
- ratio of IC50 for cells with mutant EGFR to IC50 for cells with wildtype EGFR (Mut/WT) (EGFR L858R/C797S): 0.001101
- ratio of IC50 for cells with mutant EGFR to IC50 for cells with wildtype EGFR (Mut/WT) (EGFR A763insLQEA): 0.004226
- ratio of IC50 for cells with mutant EGFR to IC50 for cells with wildtype EGFR (Mut/WT) (EGFR A767insASV): 2.233
- ratio of IC50 for cells with mutant EGFR to IC50 for cells with wildtype EGFR (Mut/WT) (EGFR S768I V774M): 0.2648
- ratio of IC50 for cells with mutant EGFR to IC50 for cells with wildtype EGFR (Mut/WT) (EGFR L858R/L792H): 0.01237
- ratio of IC50 for cells with mutant EGFR to IC50 for cells with wildtype EGFR (Mut/WT) (EGFR G719S): 0.1998
- ratio of IC50 for cells with mutant EGFR to IC50 for cells with wildtype EGFR (Mut/WT) (EGFR D770insNPG): 5.022
- ratio of IC50 for cells with mutant EGFR to IC50 for cells with wildtype EGFR (Mut/WT) (EGFR L718V): 1.264
- ratio of IC50 for cells with mutant EGFR to IC50 for cells with wildtype EGFR (Mut/WT) (EGFR Ex19del): 0.0005535
- ratio of IC50 for cells with mutant EGFR to IC50 for cells with wildtype EGFR (Mut/WT) (EGFR L858R): 0.0006817
- ratio of IC50 for cells with mutant EGFR to IC50 for cells with wildtype EGFR (Mut/WT) (EGFR L858R/L718V): 0.05575
- ratio of IC50 for cells with mutant EGFR to IC50 for cells with wildtype EGFR (Mut/WT) (EGFR S811F): 0.006549
- ratio of IC50 for cells with mutant EGFR to IC50 for cells with wildtype EGFR (Mut/WT) (EGFR Ex19del G724S): 27.39
- ratio of IC50 for cells with mutant EGFR to IC50 for cells with wildtype EGFR (Mut/WT) (EGFR L858R/T790M): 38.86
